In the assay the target is CDK2 (UniProt P24941). As to the kind of experiment: Enzyme Assay. Conditions: concentration not given here.

Turning to `Cc1sc(NC(=O)/C=C\c2ccc(N(C)C)cc2)c(C(N)=O)c1C`, the inhibition is 100%.

For the compound `CN(C)CC(=O)Nc1sc2c(c1C(N)=O)CCCC2`, the inhibition came to 100%.

`CC(C)C(C(=O)O)N(C(N)=O)c1sc(Cc2ccccc2)cc1C(N)=O` (centres undefined) yielded an inhibition of 100%.

The compound `NC(=O)c1cc(-c2ccccc2)sc1NC(=O)COc1ccccc1` had an inhibition of 100%.

For the compound `Cc1csc(NC(=O)CNC(=O)/C=C/c2ccco2)c1C(N)=O`, the inhibition came out at 100%.

`CC(c1ccccc1)c1cc(C(N)=O)c(NC(=O)c2cccc3c2C(=O)N=N3)s1` (centres undefined) came in with an inhibition of 100%.

`CC(C)c1cc(C(N)=O)c(NC(=O)/C=C/c2c[nH]cn2)s1` came in with an inhibition of 100%.

The compound `NC(=O)c1cc(-c2ccccc2)sc1NC(=O)C1(c2ccccc2)CC1` showed an inhibition of 100%.

`CCCC(Nc1sc(Cc2ccccc2)cc1C(N)=O)C(=O)NC(N)=O` (centres undefined) had an inhibition of 100%.

In the case of `NC(=O)c1c(NC(=O)c2cc[nH]c2)sc2c1CCCC2`, the inhibition turned out to be 100%.

For the compound `Cc1csc(NC(=O)c2ccccc2S(C)(=O)=O)c1C(N)=O`, the inhibition amounted to 100%.

On to `Cc1ccc(O)c(C(=O)Nc2sc(-c3ccccc3)cc2C(N)=O)c1`, for which the inhibition was determined as 100%.

Take `COc1cc(/C=C\C(=O)Nc2scc(C)c2C(N)=O)cc(OC)c1`: the inhibition is 100%.

In the case of `CC(c1ccccc1)c1cc(C(N)=O)c(NC(=O)c2cnnc3ccccc23)s1` (centres undefined), the inhibition turned out to be 100%.

`CC(=O)N[C@@H](CC(N)=O)C(=O)Nc1sc(C(C)c2ccccc2)cc1C(N)=O` (some centres undefined) returned an inhibition of 100%.

Compound `Cc1sc(NC(=O)Cc2c[nH]c3ccccc23)c(C(N)=O)c1C` yielded an inhibition of 100%.

Consider `CC(=O)NC(Cc1c[nH]cn1)C(=O)Nc1sc2c(c1C(N)=O)CCN(C)C2` (centres undefined), for which the inhibition was found to be 100%.

With `CC1(C)CC(=O)C=C(C(=O)Nc2sc(Cc3ccccc3)cc2C(N)=O)O1`, the inhibition was 100%.

In the case of `CN1CCc2c(sc(NC(=O)c3ccc(I)cc3)c2C(N)=O)C1`, the inhibition worked out at 100%.

`CC#CC(=O)Nc1sc2c(c1C(N)=O)CCCC2` registered an inhibition of 100%.

`Cc1ccc(C(=O)Nc2sc(-c3ccccc3)cc2C(N)=O)cc1O`: the inhibition was 100%.

Consider `CC(=O)NCCCCCC(=O)Nc1sc(C(C)c2ccccc2)cc1C(N)=O` (centres undefined), for which the inhibition stood at 100%.

On to `COc1ccc2c(c1)C(CC(=O)Nc1sc3c(c1C(N)=O)CCN(C)C3)C(=O)C2` (centres undefined), for which the inhibition was 100%.

In turn, `CC(c1ccccc1)c1cc(C(N)=O)c(NC(=O)CCC(=O)c2ccccc2)s1` (centres undefined) returned an inhibition of 100%.

For `NC(=O)c1cc(-c2ccccc2)sc1NC(=O)/C=C/c1ccsc1`, the inhibition came out at 100%.

`NC(=O)c1cc(-c2ccccc2)sc1NC(=O)c1ccc2cc[nH]c2c1` came in with an inhibition of 100%.

`Cc1ccc(S(=O)(=O)CC(=O)Nc2sc3c(c2C(N)=O)CCN(C)C3)cc1` gave an inhibition of 100%.

Regarding `C/C(=C/c1ccccc1)C(=O)Nc1sc(-c2ccccc2)cc1C(N)=O`, the inhibition was 100%.

Consider `NC(=O)c1cc(-c2ccccc2)sc1NC(=O)/C=C/c1cccs1`, for which the inhibition stood at 100%.

Consider `CC(=O)Nc1sc2c(c1C(N)=O)CCCC2`, for which the inhibition stood at 100%.

On to `CC(C)c1cc(C(N)=O)c(NC(=O)CCc2cccnc2)s1`, for which the inhibition amounted to 100%.

Take `NC(=O)c1c(NC(=O)C2CC2)sc2c1CCCC2`: the inhibition stood at 100%.

As for `NC(=O)c1c(NC(=O)C2CCCC2)sc2c1CCCC2`, the inhibition stood at 100%.

`CC(c1ccccc1)c1cc(C(N)=O)c(NC(=O)c2cn(C)c3ccccc23)s1` (centres undefined) had an inhibition of 100%.

`NC(=O)c1cc(Cc2ccccc2)sc1NC(=O)c1ccc2c(c1)OCO2` displayed an inhibition of 100%.

Take `CC(C)c1cc(C(N)=O)c(NC(=O)/C=C/c2cccnc2)s1`: the inhibition was found to be 100%.

`Cc1ccoc1C(=O)Nc1sc2c(c1C(N)=O)CCCC2` showed an inhibition of 100%.

`CN1CCc2c(sc(NC(=O)c3cc(O)c4cc(Cl)ccc4n3)c2C(N)=O)C1` showed an inhibition of 100%.

As for `COc1ccc(Cl)cc1C(=O)Nc1sc(C)c(C)c1C(N)=O`, the inhibition stood at 100%.

Source of the values: the Kinase Knowledgebase extract (Sharma et al. 2016).
